The source of these data is US20260000692A1, “Substituted N-(Pyridin-2-yl)Acetamide Derivatives as CDK12/13 Inhibitors” (Aurigene Oncology Limited, priority 2022, published 2026).

For this test, the target named is CDK12 (Homo sapiens, UniProt Q9NYV4). As to the kind of experiment: Biochemical assay for CDK12 (LANCE TR-FRET, IC50 determination). The conditions noted are these: for IC50: CDK12, IC50 class, read-out: IC50 μM (in range); for inhibition at 10 µM / CDK12 % Inhibition @ 10 μM: compound at 10 μM; for inhibition at 10 µM: read-out: CDK12 % Inhibition @ 10 μM. The protocol:
Biochemical Assay for CDK12 (IC50 Determination):
The inhibitory activity of the test compounds was assessed by the LANCE TR-FRET assay, which detects the ATP-dependent phosphorylation of an ULight-4E-BP1 (Thr37/Thr46) substrate peptide (100 nM) by CDK12 (30 nM). Briefly, the enzyme reaction was run in reaction buffer (25 mM HEPES (pH 7.5), 10 mM MgCl2, […], 0.01% Triton x, 1 mM DTT). The assay was performed in 384-well plate format. The end concentration of the ATP substrate was […], and that of the ULight-4E-BP1 (Thr37/Thr46) substrate peptide was 100 nM, and of CDK12 was 30 nM. Pre-incubation of the compound and enzyme was performed for 60 min at room temperature. After 60 min incubation at room temperature, the reaction was terminated by the addition of 40 mM EDTA and 0.5 nM Eu-labeled anti-phospho-eIF4E-binding protein (Thr37/46) antibody in LANCE detection buffer. Time-resolved fluorescence (excitation, 320 nm; emission donor, 615 nm; emission acceptor, 665 nm) was monitored by using 2030 multilabel reader Victor5 (PerkinElmer). The Fluorescence emission of the samples were measured and the ratio was plotted against the compound concentration to generate the dose response curve. The IC50 values were derived by fitting a sigmoidal dose-response curve to a plot of assay readout over inhibitor concentration. All fits were computed with the program Prism 5.03 (Graph Pad Software, San Diego, CA). The % inhibition values at […] were calculated with respect to enzyme activity.
(In general: TR-FRET usually uses a lanthanide donor and a delayed reading to cut background.)

CDK12, sequence (Q9NYV4 whole entry): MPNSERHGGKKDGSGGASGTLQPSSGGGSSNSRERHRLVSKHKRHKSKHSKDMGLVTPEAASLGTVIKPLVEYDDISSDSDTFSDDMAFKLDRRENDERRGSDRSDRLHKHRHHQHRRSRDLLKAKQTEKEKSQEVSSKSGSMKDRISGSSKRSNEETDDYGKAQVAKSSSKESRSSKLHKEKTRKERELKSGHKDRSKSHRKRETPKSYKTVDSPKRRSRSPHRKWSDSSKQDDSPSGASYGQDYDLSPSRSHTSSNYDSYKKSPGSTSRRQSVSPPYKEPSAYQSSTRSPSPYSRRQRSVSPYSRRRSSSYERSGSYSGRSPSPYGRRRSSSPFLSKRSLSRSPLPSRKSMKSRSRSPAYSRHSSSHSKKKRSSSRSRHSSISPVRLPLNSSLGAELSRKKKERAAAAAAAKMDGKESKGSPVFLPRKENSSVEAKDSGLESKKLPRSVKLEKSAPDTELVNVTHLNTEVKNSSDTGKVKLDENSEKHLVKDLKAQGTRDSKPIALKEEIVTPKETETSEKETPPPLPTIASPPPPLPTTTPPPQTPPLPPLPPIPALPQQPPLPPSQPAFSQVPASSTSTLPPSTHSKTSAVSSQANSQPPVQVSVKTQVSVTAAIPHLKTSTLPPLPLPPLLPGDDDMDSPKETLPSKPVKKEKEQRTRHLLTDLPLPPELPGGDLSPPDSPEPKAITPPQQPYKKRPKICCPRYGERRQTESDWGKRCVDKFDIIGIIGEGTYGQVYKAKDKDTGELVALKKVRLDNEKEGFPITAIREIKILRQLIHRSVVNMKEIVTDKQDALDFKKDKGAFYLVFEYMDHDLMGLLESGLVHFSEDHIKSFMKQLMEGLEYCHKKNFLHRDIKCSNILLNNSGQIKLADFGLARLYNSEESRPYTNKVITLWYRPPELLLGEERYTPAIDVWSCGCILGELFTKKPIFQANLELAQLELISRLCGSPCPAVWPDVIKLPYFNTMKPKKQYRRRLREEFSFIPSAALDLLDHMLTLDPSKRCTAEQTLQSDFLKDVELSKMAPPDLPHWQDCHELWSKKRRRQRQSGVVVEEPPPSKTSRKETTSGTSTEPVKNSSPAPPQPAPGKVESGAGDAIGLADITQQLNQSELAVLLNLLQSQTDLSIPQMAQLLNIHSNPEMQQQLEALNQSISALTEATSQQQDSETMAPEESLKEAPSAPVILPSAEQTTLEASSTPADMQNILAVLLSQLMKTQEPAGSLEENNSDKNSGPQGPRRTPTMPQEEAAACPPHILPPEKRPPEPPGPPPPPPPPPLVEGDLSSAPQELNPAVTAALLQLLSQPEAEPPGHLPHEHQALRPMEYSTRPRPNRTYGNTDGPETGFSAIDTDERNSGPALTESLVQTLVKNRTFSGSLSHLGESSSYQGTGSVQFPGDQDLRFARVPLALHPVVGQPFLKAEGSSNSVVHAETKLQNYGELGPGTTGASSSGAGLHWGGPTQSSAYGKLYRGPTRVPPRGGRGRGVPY
CDK12, sequence (O75909 whole entry partner): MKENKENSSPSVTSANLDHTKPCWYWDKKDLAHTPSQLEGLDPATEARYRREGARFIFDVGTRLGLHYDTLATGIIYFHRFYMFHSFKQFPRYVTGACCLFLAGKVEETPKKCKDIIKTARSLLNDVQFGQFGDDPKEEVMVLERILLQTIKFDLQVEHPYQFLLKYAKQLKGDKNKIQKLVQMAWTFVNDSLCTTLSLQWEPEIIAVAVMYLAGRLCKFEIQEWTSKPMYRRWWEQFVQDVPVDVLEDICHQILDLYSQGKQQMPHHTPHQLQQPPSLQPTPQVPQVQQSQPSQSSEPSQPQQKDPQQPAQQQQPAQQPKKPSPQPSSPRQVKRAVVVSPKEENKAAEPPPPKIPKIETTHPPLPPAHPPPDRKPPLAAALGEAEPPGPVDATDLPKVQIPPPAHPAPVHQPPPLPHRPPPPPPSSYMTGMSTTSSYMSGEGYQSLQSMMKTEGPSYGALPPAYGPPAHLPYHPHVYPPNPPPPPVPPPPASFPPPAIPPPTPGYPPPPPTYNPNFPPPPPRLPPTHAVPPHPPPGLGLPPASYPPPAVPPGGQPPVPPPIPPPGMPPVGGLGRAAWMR

For orientation: IC50 means the concentration at which inhibition is half-maximal. A word on the inhibition: it is the change of the read-out against control, counted positive when it falls. Take `CNC(=O)C(C)Oc1cc(NC(=O)Cc2ccc(C3CCCN(C#N)C3)nc2)ncc1Cl` (single isomer, unassigned) [Compound 86, 2-((5-chloro-2-(2-(6-(1-cyanopiperidin-3-yl)pyridin-3-yl)acetamido)pyridin-4-yl)oxy)-N-methylpropanamide]: the IC50 is more than 0.1 µM and the inhibition at 10 µM turned out to be 84%.

As to `CNC(=O)C(C)Oc1cc(NC(=O)Cc2ccc(C3CCCN(C#N)C3)nc2)ncc1Cl` (single isomer, unassigned) [Compound 87, 2-((5-chloro-2-(2-(6-(1-cyanopiperidin-3-yl)pyridin-3-yl)acetamido)pyridin-4-yl)oxy)-N-methylpropanamide], the IC50 is more than 0.1 µM and the “CDK12 % Inhibition @ 10 μM” value came out at 85%. For `CNC(=O)C(C)Oc1cc(NC(=O)Cc2ccc(C3CCCN(C#N)C3)nc2)ncc1Cl` (single isomer, unassigned) [Compound 88, 2-((5-chloro-2-(2-(6-(1-cyanopiperidin-3-yl)pyridin-3-yl)acetamido)pyridin-4-yl)oxy)-N-methylpropanamide], the IC50 was more than 0.1 µM and the “CDK12 % Inhibition @ 10 μM” value came out at 79%. With `CNC(=O)C(C)Oc1cc(NC(=O)Cc2ccc(C3CCCN(C#N)C3)nc2)ncc1Cl` (single isomer, unassigned) [Compound 89, 2-((5-chloro-2-(2-(6-(1-cyanopiperidin-3-yl)pyridin-3-yl)acetamido)pyridin-4-yl)oxy)-N-methylpropanamide], the IC50 was 0.01 to 0.1 µM and the “CDK12 % Inhibition @ 10 μM” value was 90%. As to `CNC(=O)C(C)Oc1cc(NC(=O)Cc2ccc(C3CCCN(C#N)C3)nc2)ncc1Cl` (single isomer, unassigned) [Compound 90, 2-((5-chloro-2-(2-(6-(1-cyanopiperidin-3-yl)pyridin-3-yl)acetamido)pyridin-4-yl)oxy)-N-methylpropanamide], the IC50 fell in the range of 0.01 to 0.1 µM and the “CDK12 % Inhibition @ 10 μM” value is recorded as 93%.

For `CNC(=O)C(C)Oc1cc(NC(=O)Cc2ccc(C3CCCN(C#N)C3)nc2)ncc1Cl` (single isomer, unassigned) [Compound 91, 2-((5-chloro-2-(2-(6-(1-cyanopiperidin-3-yl)pyridin-3-yl)acetamido)pyridin-4-yl)oxy)-N-methylpropanamide], the IC50 was 0.01 to 0.1 µM and the “CDK12 % Inhibition @ 10 μM” value was determined as 95%. On to `N#CN1CCCC(c2ccc(CC(=O)Nc3cc(O[C@@H]4CCOC4)c(Cl)cn3)cn2)C1` (single isomer, unassigned) [Compound 93], for which the IC50 is 0.01 to 0.1 µM and the inhibition at 10 µM was determined as 73%. With `N#CN1CCCC(c2ccc(CC(=O)Nc3cc(O[C@@H]4CCOC4)c(Cl)cn3)cn2)C1` (single isomer, unassigned) [Compound 94], the IC50 lay within 0.01 to 0.1 µM and the “CDK12 % Inhibition @ 10 μM” value is recorded as 77%.

Consider `N#CN1CCCC(c2ccc(CC(=O)Nc3cc(O[C@H]4CCOC4)c(Cl)cn3)cn2)C1` (single isomer, unassigned) [Compound 96], for which the half-maximal inhibitory concentration (IC50) was more than 0.1 µM and the inhibition at 10 µM amounted to 91%. For the compound `N#CN1CCCC(c2ccc(CC(=O)Nc3cc(O[C@H]4CCOC4)c(Cl)cn3)cn2)C1` (single isomer, unassigned) [Compound 97], the 50% inhibitory concentration (IC50) fell in the range of 0.01 to 0.1 µM and the “CDK12 % Inhibition @ 10 μM” value turned out to be 96%. Take `CN1CCC(Oc2cc(NC(=O)Cc3ccc(C4=CCN(C#N)CC4)nc3)ncc2Cl)C1` (stereo in doubt) [Compound 29, (R)-N-(5-chloro-4-((1-methylpyrrolidin-3-yl)oxy)pyridin-2-yl)-2-(1′-cyano-1′,2′,3′,6′-tetrahydro-[2,4′-bipyridin]-5-yl)acetamide]: the IC50 was in the range of 0.01 to 0.1 µM and the inhibition at 10 µM came out at 86%. The like results for `CN1CCC(Oc2cc(NC(=O)Cc3ccc(C4=CCN(C#N)CC4)nc3)ncc2Cl)C1` (stereo in doubt) [Compound 30, (S)-N-(5-chloro-4-((1-methylpyrrolidin-3-yl)oxy)pyridin-2-yl)-2-(1′-cyano-1′,2′,3′,6′-tetrahydro-[2,4′-bipyridin]-5-yl)acetamide] were, in that order, 0.01 to 0.1 µM and 82%. In the case of `CNC(=O)C(C)Oc1cc(NC(=O)Cc2ccc(C3=CCN(C#N)CC3)nc2)ncc1Cl` (stereo not drawn) [Compound 1, 2-((5-chloro-2-(2-(1′-cyano-1′,2′,3′,6′-tetrahydro-[2,4′-bipyridin]-5-yl)acetamido)pyridin-4-yl)oxy)-N-methylpropanamide], the IC50 was less than 0.01 µM and the inhibition at 10 µM turned out to be 92%. The like results for `N#CN1CC=C(c2ccc(CC(=O)Nc3ccc(Cl)cn3)cn2)CC1` [Compound 4, N-(5-chloropyridin-2-yl)-2-(1′-cyano-1′,2′,3′,6′-tetrahydro-[2,4′-bipyridin]-5-yl)acetamide] were, in that order, 0.01 to 0.1 µM and 75%. On to `N#CN1CCC=C(c2ccc(CC(=O)Nc3ccc(Cl)cn3)cn2)C1` [Compound 5, N-(5-chloropyridin-2-yl)-2-(1′-cyano-1′,2′,5′,6′-tetrahydro-[2,3′-bipyridin]-5-yl)acetamide], for which the IC50 lay in the range of 0.01 to 0.1 µM and the inhibition at 10 µM is 75%. On the same counts, the results for `N#CN1CC=C(c2ccc(CC(=O)Nc3ccc(Cl)cn3)cn2)C1` [Compound 6, N-(5-chloropyridin-2-yl)-2-(6-(1-cyano-2,5-dihydro-1H-pyrrol-3-yl)pyridin-3-yl)acetamide] are less than 0.01 µM and 78%. The like results for `N#CN1CC=C(c2ccc(CC(=O)Nc3cc(N4CCOCC4)c(Cl)cn3)cn2)CC1` [Compound 7, N-(5-chloro-4-morpholinopyridin-2-yl)-2-(1′-cyano-1′,2′,3′,6′-tetrahydro-[2,4′-bipyridin]-5-yl)acetamide] were, in that order, 0.01 to 0.1 µM and 88%.

With `COc1cc(NC(=O)Cc2ccc(C3=CCN(C#N)CC3)nc2)ncc1Cl` [Compound 8, N-(5-chloro-4-methoxypyridin-2-yl)-2-(1′-cyano-1′,2′,3′,6′-tetrahydro-[2,4′-bipyridin]-5-yl)acetamide], the IC50 is less than 0.01 µM and the inhibition at 10 µM is 82%.

Consider `CN1CCN(c2cc(NC(=O)Cc3ccc(C4=CCN(C#N)CC4)nc3)ncc2Cl)CC1` [Compound 9, N-(5-chloro-4-(4-methylpiperazin-1-yl)pyridin-2-yl)-2-(1′-cyano-1′,2′,3′,6′-tetrahydro-[2,4′-bipyridin]-5-yl)acetamide], for which the inhibition at 10 µM was determined as 64%. As to `CN1CCC(Oc2cc(NC(=O)Cc3ccc(C4=CCN(C#N)CC4)nc3)ncc2Cl)C1` (stereo not drawn) [Compound 10, N-(5-chloro-4-((1-methylpyrrolidin-3-yl)oxy)pyridin-2-yl)-2-(1′-cyano-1′,2′,3′,6′-tetrahydro-[2,4′-bipyridin]-5-yl)acetamide], the IC50 is less than 0.01 µM and the inhibition at 10 µM came out at 72%.

As for `CN1CCC(Oc2cc(NC(=O)Cc3ccc(C4=CCN(C#N)CC4)nc3)ncc2Cl)CC1` [Compound 11, N-(5-chloro-4-((1-methylpiperidin-4-yl)oxy)pyridin-2-yl)-2-(1′-cyano-1′,2′,3′,6′-tetrahydro-[2,4′-bipyridin]-5-yl)acetamide], the IC50 is 0.01 to 0.1 µM and the inhibition at 10 µM was determined as 89%. The like results for `N#CN1CC=C(c2ccc(CC(=O)Nc3cc(OC4CCOC4)c(Cl)cn3)cn2)CC1` (stereo not drawn) [Compound 12, N-(5-chloro-4-((tetrahydrofuran-3-yl)oxy)pyridin-2-yl)-2-(1′-cyano-1′,2′,3′,6′-tetrahydro-[2,4′-bipyridin]-5-yl)acetamide] were, in that order, less than 0.01 µM and 84%. For the compound `Cc1cc(CC(=O)Nc2ccc(Cl)cn2)cnc1C1=CCN(C#N)CC1` [Compound 13, N-(5-chloropyridin-2-yl)-2-(1′-cyano-3-methyl-1′,2′,3′,6′-tetrahydro-[2,4′-bipyridin]-5-yl)acetamide], the IC50 was in the range of 0.01 to 0.1 µM and the inhibition at 10 µM is 75%. For the compound `COCC(C)Oc1cc(NC(=O)Cc2ccc(C3=CCN(C#N)CC3)nc2)ncc1Cl` (stereo not drawn) [Compound 14, N-(5-chloro-4-((1-methoxypropan-2-yl)oxy)pyridin-2-yl)-2-(1′-cyano-1′,2′,3′,6′-tetrahydro-[2,4′-bipyridin]-5-yl)acetamide], the IC50 is less than 0.01 µM and the inhibition at 10 µM worked out at 96%. Take `N#CN1CC=C(c2ccc(CC(=O)Nc3cc(OC4COC4)c(Cl)cn3)cn2)CC1` [Compound 15, N-(5-chloro-4-(oxetan-3-yloxy)pyridin-2-yl)-2-(1′-cyano-1′,2′,3′,6′-tetrahydro-[2,4′-bipyridin]-5-yl)acetamide]: the IC50 was less than 0.01 µM and the inhibition at 10 µM stood at 96%.

On to `N#CN1CCC(c2ccc(CC(=O)Nc3ccc(Cl)cn3)cn2)C1` (stereo not drawn) [Compound 16, N-(5-chloropyridin-2-yl)-2-(6-(1-cyanopyrrolidin-3-yl)pyridin-3-yl)acetamide], for which the IC50 is 0.01 to 0.1 µM and the inhibition at 10 µM stood at 89%.
